# Assays:
# clinical = assay: clinical
# Procedure: PK samples were taken in Module 1A, Module 1 B-1 and Module 2A (see schedule of assessments in Supplementary Information for timing of PK samples). PK parameters were derived using standard non-compartmental methods.
# Samuraciclib pharmacokinetic (PK) analyses were performed using the PK Population (defined as all patients who received at least 1 dose of samuraciclib and who had at least 1 samuraciclib plasma concentration above the lower limit of quantification and no important AEs or protocol deviations or other event that could have impacted the PK analysis). PK parameters were derived using standard non-compartmental methods, with graphical presentations of PK data as appropriate. Samuraciclib plasma concentrations and derived PK parameters were summarized by dose level. Parameters following single and multiple dosing were summarized separately. Appropriate statistics were used to summarize plasma concentrations and PK parameters. […]
# [1] = tested on: patients with advanced malignancies; assay: Safety pooled across study modules; type: in vivo
# Procedure: These were summarized by Medical Dictionary for Regulatory
# adverse events (SAEs) were analyzed and reported separately. Details of any deaths were listed. All
# were listed individually by patient and summarized descriptively. For urinalysis parameters, any
# positive. Abnormal physical examina tion findings were listed.
# pCDK1/2/3 = assay: Immunohistochemistry H-score in paired tumor biopsies, pCDK1/2/3; type: in vivo, human
# Procedure: Per-protocol ctDNA samples were taken in Module 1B-1 at screening, C1D1, C2D1 and on D1 of alternating cycles from Cycle 3; in Module 2A at screening, C1D1 and at either C2D1 (240 mg) or C2D15 (360 mg) for mutational analysis[24],[33], (Supplementary Information). pPolII in lymphocytes and pPolII and pCDK1/2/3 in core needle tissue samples from patients recruited to the paired biopsy cohort were evaluated for on-target pharmacodynamic analyses. […]
# pharmacodynamic effects in tumor tissue. […]
# variability in H-score was observed between sections. […]
# H-scores for pre-dose and on-study biopsies and summary statistics for the observed H-score when stained for pCDK1/2/3 and pPolII are shown in Supplementary Table 11. Significance was calculated using Student’s one-tailed paired t-test, where the alternative hypothesis was that on-study samples had
# rats = tested on: rats; set-up: method as in ref IB; conditions: ref IB; cited from earlier work
# CYP1A2 = tested on: CYP1A2; set-up: method as in ref IB; conditions: human microsomes; ref IB; cited from earlier work
# [2] = set-up: method as in ref IB; conditions: mouse; ref IB; cited from earlier work
# [3] = tested on: Han Wistar (Crl:WI [Han]) rats; conditions: cited from earlier work
# [4] = Module 1 (both parts) and Module 2A
# [5] = as of 16 November 2020, 115 patients
smiles,measurement,setting,value
"CC(C)c1cnn2c(NCc3ccccc3)cc(NC[C@H]3CCNC[C@@H]3O)nc12 [samuraciclib, Samuraciclib]",Apparent clearance,clinical; Module 1A,moderate to high
same,Time to steady state,"clinical; both, human, in vivo",8 to 15 days
same,Tmax,"clinical; both, human, in vivo",1.5 to 4 h
same,half-life,"clinical; both, human, in vivo",~75 h
same,half-life,"clinical; both, human, in vivo, 180 mg",54.8 to 82.3 h
same,half-life,"clinical; both, human, in vivo, 480 mg",30 to 38 h
same,Distribution,clinical; in vivo,extensively distributed
same,Time dependence of PK,clinical; in vivo,time independent
same,Events of Grade 4 thrombocytopenia,[1]; 1 at 180mg BID and 1 at 360mg OD,2 events
same,Events of Grade 1 platelet count decreased,[1]; 1 at 240mg OD and 2 at 360mg,3 events
same,Patients with at least one AE considered related to samuraciclib,"[1]; 96/98 patients, Modules 1A, 1B-1, 2A",98.0%
same,Events of neutropenia/white blood cell count decreased,[1]; Grade 1 at 360mg OD and 180mg BID,2 events
same,Deaths considered related to samuraciclib treatment,[1]; [4],None
same,Patients who died following an AE,[1]; [4],5 patients
same,SAEs considered related to study treatment,[1]; [4],6
same,Serious adverse events (not including deaths),[1]; [4],27 patients
same,Recovery of platelets after stopping samuraciclib,[1]; Module 1B-1 and Module 2A,≤ 28 days
same,"Patients with diarrhoea, nausea and vomiting","[1]; across dose levels, largely Grade 1, as of 16 November 2020",more than 75%
same,Events of anaemia,[1]; [5],16 events
same,Events of increased ALT,[1]; [5],14 events
same,Events of increased AST,[1]; [5],16 events
same,Platelet related AEs,[1]; [5],13
same,Events of Grade 1 thrombocytopenia,[1]; at 360mg OD,4 events
same,Events of Grade 2 platelet count decreased,[1]; at 360mg OD,1 event
same,Events of Grade 2 thrombocytopenia,[1]; at 360mg OD,2 events
same,Events of Grade 3 thrombocytopenia,[1]; at 360mg OD,1 event
same,Thrombocytopenia reported as Grade ≥4,[1]; discussion,3 patients
same,"pCDK1/2/3 H-Score, On study, average","pCDK1/2/3; Average 240mg OD patients, pre-dose 169",102
same,"pCDK1/2/3 H-Score, On study, average","pCDK1/2/3; Average 360mg OD patients, pre-dose 119",118
same,"pCDK1/2/3 H-Score, On study, average","pCDK1/2/3; Average all patients, pre-dose 144",110
same,"pCDK1/2/3 H-Score, On study","pCDK1/2/3; HR+ breast cancer, breast biopsy, 360 mg OD, pre-dose 178",112
same,"pCDK1/2/3 H-Score, On study","pCDK1/2/3; HR+ breast cancer, liver biopsy, 240 mg OD, pre-dose 125",90
same,"pCDK1/2/3 H-Score, On study","pCDK1/2/3; HR+ breast cancer, liver biopsy, 240 mg OD, pre-dose 234",151
same,"pCDK1/2/3 H-Score, On study","pCDK1/2/3; HR+ breast cancer, liver biopsy, 360 mg OD, pre-dose 89",128
same,"pCDK1/2/3 H-Score, On study","pCDK1/2/3; HR+ breast cancer, liver biopsy, 360 mg OD, pre-dose 91",113
same,"pCDK1/2/3 H-Score, On study","pCDK1/2/3; Rhabdomyosarcoma, axilla biopsy, 240 mg OD, pre-dose 148",64
same,Levels of pCDK1/2/3 in tumors,pCDK1/2/3; paired biopsy cohort,"showed a reduction, although this did not reach statistical significance"
same,Effects on CNS (Irwin) and respiratory systems,rats,No significant effects
same,Oral bioavailability,[2],good oral bioavailability
same,Findings in 4-week oral gavage study,"[3]; 120 mg/kg/day, Han Wistar rats, ref IB",deaths and severe clinical
same,HNSTD (middle dose tested),"[3]; rat, in vivo",60 mg/kg

# Reference: PMC10366102, “Dose escalation and expansion cohorts in patients with advanced breast cancer in a Phase I study of the CDK7-inhibitor samuraciclib” (Nature Communications, 2023)
